These results are taken from US20150025031A1, “METABOLIC DOWNREGULATION FOR CELL SURVIVAL” (WAKE FOREST UNIVERSITY HEALTH SCIENCES, priority 2012, published 2015).

The subject of one data set is ischemic skin flap. The data set can be described thus: Ischemic skin flap model. The settings on record: 100 mM in 2% agarose gel, vs control. It counts as in vivo, nude mice. The method, then: Skin flap model: The u-shaped skin flaps were created on the back of the nude mice, then silicone sheet with 100 mM CDA-containing 2% agarose gel on top of it was placed subcutaneously between muscle and skin layer (FIGS. 9A-9B). Control group received only the materials without CDA incorporated (n=3 per each group). At day 3, the flap necrosis was photographed, and H&E sections were prepared and microscopically examined.
The u-shaped skin flaps were created on the back of the nude mice, then silicone sheet with 100 mM CDA-containing 2% agarose gel (A9045, Sigma) on top of it was placed subcutaneously between muscle and skin layer (FIG. 29A). Control group received only the materials without CDA incorporated (n=3). At day 3, the flap necrosis was photographed, and H&E sections were microscopically examined.

Data set [1] has as its system tibialis anterior (TA) muscle. As to the kind of experiment: Compartment syndrome (compression injury) model, tibialis anterior muscle function. It counts as in vivo, Sprague Dawley rats. Particulars: for recovery in muscle function vs control group / percent recovery of muscle function: tetanic outcome at 100 Hz. On the procedure:
Compartment syndrome model: Neonatal blood pressure cuffs were placed on the hind limbs of Sprague Dawley rats. A pressure of 130-140 mmHg was held for 3 hrs to induce compartment syndrome in the tibialis anterior (TA) muscle. The experimental group received 50 mM CDA in 300 uL saline daily up to day 2 after injury whereas the control group only received an equal volume of saline (n=6 per each group). The measurement of muscle tetanic force was used to assess in vivo muscle function at before injury and day 3 & 7.
All animal studies were performed in strict compliance with Wake Forest University IACUC and NIH guidelines. Male Lewis rats (6-8 weeks old, Harlan) were anesthetized with 2-3% isofluorane prior to all procedures. A #2 sized neonatal blood pressure cuff (Trimline Medical Products Tempa-Kuff) was tightened around the hind limb proximal to the extensor digitorum longus (EDL) muscle. The time and amount of pressure used varied as indicated. Due to the extended length of anesthesia, rats were administered IP injections of saline over the course of the procedure. Rats were euthanized at 1, 2, 4, 7, 14 or 35d post injury. At least 3 separate experiments were analyzed.
Neonatal blood pressure cuffs were placed on the hind limbs of Sprague Dawley rats. A pressure of 130-140 mmHg was held for 3 hours to induce compartment syndrome in the tibialis anterior (TA) muscle. The experimental group received injection of 30 mM cladribine in 200 μL saline daily up to day 2 after injury whereas the control group only received an equal volume of saline (n=6). The measurement of muscle tetanic force was used to assess in vivo muscle function at before and right after injury, day 3, 7, 11 and 14.
Contractile function (i.e., torque-frequency relationship) of the left anterior crural muscles was measured in vivo using similar methodology as previously described for mice (Kalka et al., 2000, Proc Natl Acad Sci USA 97:3422-3427; Boutilier, 2001, J Exp Biol 204:3171-3181) After rats were anesthetized (2-2.5% isoflurane), the left hindlimb was aseptically prepared. The rat was then placed on a heated platform. The left knee was clamped and the left foot was secured to a custom-made foot plate that is attached to the shaft of an Aurora Scientific 305C-LR-FP servomotor, which in turn was controlled using a PC. Sterilized percutaneous needle electrodes were inserted through the skin for stimulation of the left common peroneal nerve. Electrical stimulus was applied using a Grass S88 stimulator with a constant current SIU (Grass Model PSIU6). Stimulation voltage and needle electrode placement were optimized first with a series of twitch contractions at 1 hz and then with 5 to 10 isometric contractions (400 ms train of 0.05-0.1 ms pulses at 100 Hz). Contractile function of the anterior crural muscles was assessed by measuring maximal isometric torque as a function of stimulation frequency (1-200 Hz). For real-time analysis of torque and length changes, voltage outputs were sampled at 4000 Hz, converted to a digital signal using an A/D board (National Instruments PCI 6221) and recorded using a PC loaded with a custom-made Labview®-based program (provided by the U.S. Army Institute of Surgical Research).

Data set [2] relates to Rat tibialis anterior (TA) muscle tissues. As to the kind of experiment: In vitro ischemic tibialis anterior muscle tissue survival (H&E, TUNEL). It counts as cell-based, Sprague Dawley rats. The settings on record: 5 mM injected, 3 days incubation. On the procedure:
Rat tibialis anterior (TA) muscle tissues were dissected immediately after sacrifice of Sprague Dawley rats (17 weeks old, 380-400 g, Harlan), injected with blank, 5 mM of adenosine or cladribine, and then incubated in 5 mL of complete media for 3 days.
The tissue samples were fixed in 10% neutral buffered formalin (Sigma-Aldrich), 6 μm sections were generated by a cryotome (Leica), and stained with hematoxyline and eosin (H&E) and with TUNEL staining. Microscopic analyses were performed using a light microscope (Zeiss M1) and ImagePro software.

Data set [3] addresses T1, adenosine deaminase (ADA) (Homo sapiens, UniProt P00813).
T1 construct: purchased Sigma
T1 sequence (P00813 1-363): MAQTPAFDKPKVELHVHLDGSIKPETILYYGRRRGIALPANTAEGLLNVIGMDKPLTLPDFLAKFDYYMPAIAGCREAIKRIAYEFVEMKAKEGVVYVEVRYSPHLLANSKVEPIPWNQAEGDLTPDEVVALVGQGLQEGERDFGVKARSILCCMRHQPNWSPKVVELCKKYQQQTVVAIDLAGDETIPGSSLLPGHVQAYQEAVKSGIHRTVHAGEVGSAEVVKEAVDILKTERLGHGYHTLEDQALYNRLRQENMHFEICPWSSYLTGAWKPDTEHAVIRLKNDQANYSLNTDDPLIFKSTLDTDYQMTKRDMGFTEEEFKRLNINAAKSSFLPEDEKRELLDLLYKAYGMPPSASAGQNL
As to the kind of experiment: Cell viability with adenosine derivatives in presence or absence of ADA, normoxic conditions (Example 2). Type of data set: cell-based. Particulars: for conversion by ADA / stability towards adenosine degrading enzymes: presence of ADA. The method, then:
Three known ADA inhibitors were examined to evaluate the efficacies of adenosine derivatives: cladribine, pentostatin, and fludarabine phosphate. They have similar structures and molecular weights compared to adenosine, but different functional groups in the structures. Metabolic rate of cells were indirectly analyzed by cell viability in the presence or absence of adenosine derivatives and ADA in various doses. Cell viability with the drugs was evaluated under normoxic conditions.
Adenosine (Sigma-Aldrich), cladribine (Sigma, 2-Chloro-2′-deoxyadenosine), pentostatin (Tocris biosciences), and fludarabine phosphate (LGM Pharma) were used throughout this study.

Data set [4] deals with C2C12 mouse myoblasts.
Data set [5] concerns C2C12 mouse myoblasts. Particulars: 5 mM, regardless of the presence of ADA.

Molecules are shown by their SMILES. “Also recorded” adds a separate entry of the source.

For the compound `Nc1nc(Cl)nc2c1ncn2[C@H]1C[C@H](O)[C@@H](CO)O1` [cladribine, 2-Chloro-2′-deoxyadenosine], the “histological examination of skin flap (H&E)” value with ischemic skin flap (3 days) is “better preservation of general tissue architecture, thickness of the skin and epidermis height”. The “distal flap necrosis (skin discoloration)” value in the data set on ischemic skin flap (subcutaneous, day 3 post-operation) is “clearly reduced”. In data set [1] (30 mM in 200 μL saline daily up to day 2, 7 days after injury), the “TA muscle twitch isometric torque” value is “significantly increased”. In addition, the “recovery in muscle function vs control group” value in data set [1] (30 mM in 200 μL saline daily up to day 2) was “significant acceleration of recovery in muscle function”; in data set [1] (30 mM in 200 μL saline daily up to day 2, listed as CDA), “significant increase in percent recovery up to day 11”. For the same compound, the “newly forming vessels (H&E, immunostaining)” value in data set [1] (30 mM in 200 μL saline daily up to day 2, vs saline group) was “more newly forming vessels”. Also, in data set [1] (50 mM in 300 uL saline daily up to day 2, 7 days after injury), the “anterior crural muscle twitch isometric torque” value was “significantly increased”. The “percent recovery of muscle function” value in data set [1] (day 3, 50 mM in 300 uL saline daily up to day 2) is around 10%; in data set [1] (day 7, 50 mM in 300 uL saline daily up to day 2), around 35%. Further, the “muscle structure (H&E)” value in data set [2] is listed as “most preserved muscle structure”. In data set [2], the “number of live nuclei (TUNEL)” value is “increased number of live nuclei”. In addition, the area of fiber entry in data set [2] (vs control and adenosine) is reported as “significantly increased area of fiber”. In addition, the “recovery of metabolic state after drug removal” value in data set [3] (drugs removed on day 5) is “recovered their normal metabolic state once the drugs were removed”. For the same compound, the “depression of cell metabolic rate (cell viability) in presence of ADA” value in data set [3] (normoxic conditions, with or without ADA, various doses) is “best able to inhibit ADA and depress the cells' metabolic rate; also recorded: maintained the cells in hypometabolic steady state the longest”. The “conversion by ADA / stability towards adenosine degrading enzymes” value in data set [3] is “bypassed the conversion by ADA”; in data set [3] (listed as CDA), “more stable than adenosine in the presence of adenosine degrading enzymes”. The “metabolism after drug and hypoxia removed” value in the data set on C2C12 mouse myoblasts [4] (5 mM, with or without ADA) was “regained metabolism activity”. Further, the “cellular metabolism under hypoxia” value with C2C12 mouse myoblasts [4] (5 mM, with or without ADA, MTS) is on record as “kept in hypometabolic steady state without being affected by ADA”. Besides, in the data set on C2C12 mouse myoblasts [4] (hypoxia, in the presence and absence of ADA), the “metabolic activity per cell vs adenosine treated cells” value was “significantly lower metabolic activity per cell”. Further, the “cell population under hypoxic condition” value with C2C12 mouse myoblasts [5] (7 days hypoxia) was “maintained minimal population with significant difference when compared to control”. In addition, the “proliferation after drug and hypoxia removed” value in the data set on C2C12 mouse myoblasts [5] is recorded as “regained their proliferation capability”.
